Measured values taken from US20230085307A1, “PYRIDAZINONE COMPOUND AND HERBICIDE” (NISSAN CHEMICAL CORPORATION, priority 2019, published 2023).

How the values were obtained:
Chinese sprangletop = assay: Test Example 3: herbicidal effect by foliage application, Wagner pot (Table 18, symbol D); type: in vivo, chinese sprangletop (Leptochloa chinensis); conditions: 320 g/ha
Procedure, shortened: (§1)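 Plants were sown in alluvial soil held under 0.1–0.5 cm standing water and grown 14 days in a greenhouse at 25–30 °C. An emulsifiable formulation, water-diluted to the set dose, was then sprayed onto the foliage, and effects were scored three weeks later using previously defined criteria.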

Italian ryegrass [1] = assay: Test Example 4: herbicidal effect by soil treatment (Table 19, symbol K); type: in vivo, Italian ryegrass (Lolium multiflorum)
Procedure, shortened: (§2)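 Soil-surface application: an emulsion agent diluted with water to the predetermined dose is sprayed uniformly over seeds lying under roughly 1.5 cm of sterilized diluvial soil. Boxes stay in a greenhouse at 25° C. to 30° C. Three weeks later, each species is graded on previously defined criteria.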

barnyard grass [2] = assay: Test Example 5: herbicidal effect by foliage application, plastic box (Table 20, symbol H); type: in vivo, barnyard grass (Echinochloa crus-galli); conditions: foliage application
Procedure, shortened: (§3)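 Sow seeds spot-wise in sterilized diluvial soil; cover with ~1.5 cm soil. Grow 14 days in greenhouse, 25° C. to 30° C. Spray foliage with emulsion diluted to predetermined amount. Rate effect after 3 weeks.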

green foxtail [3] = assay: Test Example 4: herbicidal effect by soil treatment (Table 19, symbol G); type: in vivo, green foxtail (Setaria viridis)
Procedure, shortened: as §2

velvetleaf [4] = assay: Test Example 5: herbicidal effect by foliage application, plastic box (Table 20, symbol M); type: in vivo, velvetleaf (Abutilon theophrasti); conditions: foliage application
Procedure, shortened: as §3

velvetleaf [5] = assay: Test Example 4: herbicidal effect by soil treatment (Table 19, symbol M); type: in vivo, velvetleaf (Abutilon theophrasti)
Procedure, shortened: as §2

barnyard grass [6] = assay: Test Example 4: herbicidal effect by soil treatment (Table 19, symbol H); type: in vivo, barnyard grass (Echinochloa crus-galli)
Procedure, shortened: as §2

windgrass [7] = assay: Test Example 5: herbicidal effect by foliage application, plastic box (Table 20, symbol L); type: in vivo, windgrass (Apera spica-venti); conditions: foliage application
Procedure, shortened: as §3

oval-leafed pondweed = assay: Test Example 2: herbicidal activity, application during weed generation under submerged conditions (Table 17, symbol C); type: in vivo, oval-leafed pondweed (Monochoria vaginalis); conditions: AAH 320 g/ha; application during weed generation, submerged conditions
Procedure, shortened: (§4)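 Effect on each weed is rated three weeks post-treatment, using the same scoring criteria as the preceding test. Plants grow from mixed-sown seed in flooded alluvial soil (4 cm water) at 25° C. to 30° C., and are treated at one to two leaves with diluted emulsion dropped onto the water.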

barnyard grass [8] = assay: Test Example 3: herbicidal effect by foliage application, Wagner pot (Table 18, symbol H); type: in vivo, barnyard grass (Echinochloa crus-galli); conditions: 320 g/ha
Procedure, shortened: as §1

blackgrass [9] = assay: Test Example 5: herbicidal effect by foliage application, plastic box (Table 20, symbol J); type: in vivo, blackgrass (Alopecurus myosuroides); conditions: foliage application
Procedure, shortened: as §3

green foxtail [10] = assay: Test Example 5: herbicidal effect by foliage application, plastic box (Table 20, symbol G); type: in vivo, green foxtail (Setaria viridis); conditions: foliage application
Procedure, shortened: as §3

persian speedwell [11] = assay: Test Example 4: herbicidal effect by soil treatment (Table 19, symbol R); type: in vivo, Persian speedwell (Veronica persica)
Procedure, shortened: as §2

lambsquarters [12] = assay: Test Example 5: herbicidal effect by foliage application, plastic box (Table 20, symbol O); type: in vivo, lambsquarters (Chenopodium album); conditions: foliage application
Procedure, shortened: as §3

redroot pigweed [13] = assay: Test Example 4: herbicidal effect by soil treatment (Table 19, symbol N); type: in vivo, redroot pigweed (Amaranthus retroflexus)
Procedure, shortened: as §2

rice flat sedge = assay: Test Example 3: herbicidal effect by foliage application, Wagner pot (Table 18, symbol E); type: in vivo, rice flat sedge (Cyperus iria); conditions: 320 g/ha
Procedure, shortened: as §1

late watergrass = assay: Test Example 2: herbicidal activity, application during weed generation under submerged conditions (Table 17, symbol A); type: in vivo, late watergrass (Echinochloa oryzicola); conditions: AAH 320 g/ha; application during weed generation, submerged conditions
Procedure, shortened: as §4

chickweed [14] = assay: Test Example 4: herbicidal effect by soil treatment (Table 19, symbol P); type: in vivo, common chickweed (Stellaria media)
Procedure, shortened: as §2

wild oat [15] = assay: Test Example 5: herbicidal effect by foliage application, plastic box (Table 20, symbol I); type: in vivo, wild oat (Avena fatua); conditions: foliage application
Procedure, shortened: as §3

persian speedwell [16] = assay: Test Example 5: herbicidal effect by foliage application, plastic box (Table 20, symbol R); type: in vivo, Persian speedwell (Veronica persica); conditions: foliage application
Procedure, shortened: as §3

lambsquarters [17] = assay: Test Example 4: herbicidal effect by soil treatment (Table 19, symbol O); type: in vivo, lambsquarters (Chenopodium album)
Procedure, shortened: as §2

southern crabgrass [18] = assay: Test Example 4: herbicidal effect by soil treatment (Table 19, symbol F); type: in vivo, southern crabgrass (Digitaria ciliaris)
Procedure, shortened: as §2

southern crabgrass [19] = assay: Test Example 5: herbicidal effect by foliage application, plastic box (Table 20, symbol F); type: in vivo, southern crabgrass (Digitaria ciliaris); conditions: foliage application
Procedure, shortened: as §3

Japanese bulrush = assay: Test Example 2: herbicidal activity, application during weed generation under submerged conditions (Table 17, symbol B); type: in vivo, Japanese bulrush (Schoenoplectus juncoides); conditions: AAH 320 g/ha; application during weed generation, submerged conditions
Procedure, shortened: as §4

windgrass [20] = assay: Test Example 4: herbicidal effect by soil treatment (Table 19, symbol L); type: in vivo, windgrass (Apera spica-venti)
Procedure, shortened: as §2

redroot pigweed [21] = assay: Test Example 5: herbicidal effect by foliage application, plastic box (Table 20, symbol N); type: in vivo, redroot pigweed (Amaranthus retroflexus); conditions: foliage application
Procedure, shortened: as §3

wild oat [22] = assay: Test Example 4: herbicidal effect by soil treatment (Table 19, symbol I); type: in vivo, wild oat (Avena fatua)
Procedure, shortened: as §2

chickweed [23] = assay: Test Example 5: herbicidal effect by foliage application, plastic box (Table 20, symbol P); type: in vivo, common chickweed (Stellaria media); conditions: foliage application
Procedure, shortened: as §3

Italian ryegrass [24] = assay: Test Example 5: herbicidal effect by foliage application, plastic box (Table 20, symbol K); type: in vivo, Italian ryegrass (Lolium multiflorum); conditions: foliage application
Procedure, shortened: as §3

blackgrass [25] = assay: Test Example 4: herbicidal effect by soil treatment (Table 19, symbol J); type: in vivo, blackgrass (Alopecurus myosuroides)
Procedure, shortened: as §2

[26] = AAH 320 g/ha, three weeks after application
[27] = 320 g/ha, evaluated three weeks after application

Cc1nn(C)c(=O)c(-c2c(-c3ccc(OCc4cnc(Cl)s4)cc3)sc3ccccc23)c1O [1-144]
herbicidal effect on D (Chinese sprangletop), rating 0-5 (Chinese sprangletop): 3 (Herbicidal rate of 40% or more and less than 70%) | K: Italian ryegrass, herbicidal effect rating (Italian ryegrass [1]; AAH 320 g/ha): 3 (Herbicidal rate of 40% or more and less than 70%) | H: barnyard grass, herbicidal effect (barnyard grass [2]; [26]): 5 (Herbicidal rate of 90% or more (almost completely withered)) | G: green foxtail, herbicidal effect rating (green foxtail [3]; AAH 320 g/ha): 0 (Herbicidal rate of 5% or less (almost no effect)) | M: velvetleaf, herbicidal effect (velvetleaf [4]; [26]): 2 (Herbicidal rate of 20% or more and less than 40%) | M: velvetleaf, herbicidal effect rating (velvetleaf [5]; AAH 320 g/ha): 0 (Herbicidal rate of 5% or less (almost no effect)) | H: barnyard grass, herbicidal effect rating (barnyard grass [6]; AAH 320 g/ha): 0 (Herbicidal rate of 5% or less (almost no effect)) | L: windgrass, herbicidal effect (windgrass [7]; [26]): 5 (Herbicidal rate of 90% or more (almost completely withered)) | herbicidal effect rating, C: oval-leafed pondweed (oval-leafed pondweed): 0 (Herbicidal rate of 5% or less (almost no effect)) | herbicidal effect on H (barnyard grass), rating 0-5 (barnyard grass [8]): 5 (Herbicidal rate of 90% or more (almost completely withered)) | J: blackgrass, herbicidal effect (blackgrass [9]; [26]): 5 (Herbicidal rate of 90% or more (almost completely withered)) | G: green foxtail, herbicidal effect (green foxtail [10]; [26]): 4 (Herbicidal rate of 70% or more and less than 90%) | R: persian speedwell, herbicidal effect rating (persian speedwell [11]; AAH 320 g/ha): 3 (Herbicidal rate of 40% or more and less than 70%) | O: lambsquarters, herbicidal effect (lambsquarters [12]; [26]): 1 (Herbicidal rate of 5% or more and less than 20%) | N: redroot pigweed, herbicidal effect rating (redroot pigweed [13]; AAH 320 g/ha): 0 (Herbicidal rate of 5% or less (almost no effect)) | herbicidal effect on E (rice flat sedge), rating 0-5 (rice flat sedge): 5 (Herbicidal rate of 90% or more (almost completely withered)) | herbicidal effect rating, A: late watergrass (late watergrass): 2 (Herbicidal rate of 20% or more and less than 40%) | P: chickweed, herbicidal effect rating (chickweed [14]; AAH 320 g/ha): 3 (Herbicidal rate of 40% or more and less than 70%) | I: wild oat, herbicidal effect (wild oat [15]; [26]): 0 (Herbicidal rate of 5% or less (almost no effect)) | R: persian speedwell, herbicidal effect (persian speedwell [16]; [26]): 5 (Herbicidal rate of 90% or more (almost completely withered)) | O: lambsquarters, herbicidal effect rating (lambsquarters [17]; AAH 320 g/ha): 0 (Herbicidal rate of 5% or less (almost no effect)) | F: southern crabgrass, herbicidal effect rating (southern crabgrass [18]; AAH 320 g/ha): 0 (Herbicidal rate of 5% or less (almost no effect)) | F: southern crabgrass, herbicidal effect (southern crabgrass [19]; [26]): 5 (Herbicidal rate of 90% or more (almost completely withered)) | herbicidal effect rating, B: Japanese bulrush (Japanese bulrush): 0 (Herbicidal rate of 5% or less (almost no effect)) | L: windgrass, herbicidal effect rating (windgrass [20]; AAH 320 g/ha): 0 (Herbicidal rate of 5% or less (almost no effect)) | N: redroot pigweed, herbicidal effect (redroot pigweed [21]; [26]): 3 (Herbicidal rate of 40% or more and less than 70%) | I: wild oat, herbicidal effect rating (wild oat [22]; AAH 320 g/ha): 0 (Herbicidal rate of 5% or less (almost no effect)) | P: chickweed, herbicidal effect (chickweed [23]; [26]): 5 (Herbicidal rate of 90% or more (almost completely withered)) | K: Italian ryegrass, herbicidal effect (Italian ryegrass [24]; [26]): 4 (Herbicidal rate of 70% or more and less than 90%) | J: blackgrass, herbicidal effect rating (blackgrass [25]; AAH 320 g/ha): 1 (Herbicidal rate of 5% or more and less than 20%)

CC(=O)COc1ccc(-c2sc3ccc(F)cc3c2-c2c(O)c(C)nn(C)c2=O)cc1 [2-068]
herbicidal effect on D (Chinese sprangletop), rating 0-5 (Chinese sprangletop): 4 (Herbicidal rate of 70% or more and less than 90%) | herbicidal effect rating, K: Italian ryegrass (Italian ryegrass [1]; 320 g/ha): 0 (Herbicidal rate of 5% or less (almost no effect)) | herbicidal effect on H: barnyard grass (barnyard grass [2]; [27]): 5 (Herbicidal rate of 90% or more (almost completely withered)) | herbicidal effect rating, G: green foxtail (green foxtail [3]; 320 g/ha): 4 (Herbicidal rate of 70% or more and less than 90%) | herbicidal effect on M: velvetleaf (velvetleaf [4]; [27]): 5 (Herbicidal rate of 90% or more (almost completely withered)) | herbicidal effect rating, M: velvetleaf (velvetleaf [5]; 320 g/ha): 5 (Herbicidal rate of 90% or more (almost completely withered)) | herbicidal effect rating, H: barnyard grass (barnyard grass [6]; 320 g/ha): 3 (Herbicidal rate of 40% or more and less than 70%) | herbicidal effect on L: windgrass (windgrass [7]; [27]): 5 (Herbicidal rate of 90% or more (almost completely withered)) | herbicidal effect rating, C: oval-leafed pondweed (oval-leafed pondweed): 3 (Herbicidal rate of 40% or more and less than 70%) | herbicidal effect on H (barnyard grass), rating 0-5 (barnyard grass [8]): 5 (Herbicidal rate of 90% or more (almost completely withered)) | herbicidal effect on J: blackgrass (blackgrass [9]; [27]): 4 (Herbicidal rate of 70% or more and less than 90%) | herbicidal effect on G: green foxtail (green foxtail [10]; [27]): 5 (Herbicidal rate of 90% or more (almost completely withered)) | herbicidal effect rating, R: persian speedwell (persian speedwell [11]; 320 g/ha): 4 (Herbicidal rate of 70% or more and less than 90%) | herbicidal effect on O: lambsquarters (lambsquarters [12]; [27]): 5 (Herbicidal rate of 90% or more (almost completely withered)) | herbicidal effect rating, N: redroot pigweed (redroot pigweed [13]; 320 g/ha): 5 (Herbicidal rate of 90% or more (almost completely withered)) | herbicidal effect on E (rice flat sedge), rating 0-5 (rice flat sedge): 5 (Herbicidal rate of 90% or more (almost completely withered)) | herbicidal effect rating, A: late watergrass (late watergrass): 2 (Herbicidal rate of 20% or more and less than 40%) | herbicidal effect rating, P: chickweed (chickweed [14]; 320 g/ha): 0 (Herbicidal rate of 5% or less (almost no effect)) | herbicidal effect on I: wild oat (wild oat [15]; [27]): 4 (Herbicidal rate of 70% or more and less than 90%) | herbicidal effect on R: persian speedwell (persian speedwell [16]; [27]): 5 (Herbicidal rate of 90% or more (almost completely withered)) | herbicidal effect rating, O: lambsquarters (lambsquarters [17]; 320 g/ha): 4 (Herbicidal rate of 70% or more and less than 90%) | herbicidal effect rating, F: southern crabgrass (southern crabgrass [18]; 320 g/ha): 1 (Herbicidal rate of 5% or more and less than 20%) | herbicidal effect on F: southern crabgrass (southern crabgrass [19]; [27]): 5 (Herbicidal rate of 90% or more (almost completely withered)) | herbicidal effect rating, B: Japanese bulrush (Japanese bulrush): 3 (Herbicidal rate of 40% or more and less than 70%) | herbicidal effect rating, L: windgrass (windgrass [20]; 320 g/ha): 0 (Herbicidal rate of 5% or less (almost no effect)) | herbicidal effect on N: redroot pigweed (redroot pigweed [21]; [27]): 5 (Herbicidal rate of 90% or more (almost completely withered)) | herbicidal effect rating, I: wild oat (wild oat [22]; 320 g/ha): 0 (Herbicidal rate of 5% or less (almost no effect)) | herbicidal effect on P: chickweed (chickweed [23]; [27]): 5 (Herbicidal rate of 90% or more (almost completely withered)) | herbicidal effect on K: Italian ryegrass (Italian ryegrass [24]; [27]): 3 (Herbicidal rate of 40% or more and less than 70%) | herbicidal effect rating, J: blackgrass (blackgrass [25]; 320 g/ha): 0 (Herbicidal rate of 5% or less (almost no effect))
